Results as given in patent US5670364A, “A83543 compounds and process for production thereof” (priority 1995, dated 1997).
≈ marks a conversion by molar mass, not a printed value.

Experiments:
blowfly larvae = test: in vitro activity against blowfly larvae; assay type: in vivo; settings: 48 hours
Experimental: (§1) The Formula 2 compounds are also active against members of the insect order Diptera. Tables XI and XII summarize the in vitro studies of the Formula 2 compounds against blowfly larvae and adult stable fly at 48 hours.

Southern Corn Rootworm = test: Mite/Insect Screen, southern corn rootworm (SCRW); assay type: in vivo, Diabrotica undecimpunctata howardi; settings: 264 h, 11 day
Experimental: (§2) The Formula 2 compounds were tested for miticidal and insecticidal activity in the following mite/insect screen. Each test compound was formulated by dissolving the compound in an acetone-alcohol (1:1) mixture containing 23 g of TOXIMUL R (sulfonate/nonionic emulsifier blend) and 13 g of TOXIMUL S (sulfonate/nonionic emulsifier blend) per liter. These mixtures were then diluted with water to give the indicated concentrations.
(§3) Two-spotted spider mites and cotton aphids were introduced on squash cotyledons and allowed to establish on both leaf surfaces. The leaves were then sprayed with 5 ml of test solutions using a DeVilbiss atomizing sprayer at 10 psi. Both surfaces of the leaves were covered until run off and then allowed to dry for one hour. After standard exposure periods percent mortality was evaluated. Additional insects were evaluated using similar formulations and evaluation procedures.

neonate tobacco budworm = test: LD50 against neonate tobacco budworm, petri dish assay; assay type: in vivo; settings: Heliothis virescens; mean of two tests; mortality evaluated at 24 and 48 hours
Experimental: Formula 2 compounds were evaluated in the following assay to determine the LD50 against neonate tobacco budworm (Heliothis virescens). A petri dish (100 mm×20 mm) is inverted and the lid lined with a #1 qualitative filter paper. Ten neonate larvae are placed in each dish and a 1 ml test solution is pipetted onto the insects. The petri dish bottom is then placed on the lid to contain the larvae. At 1 hour after treatment, a small piece of Heliothis diet (modified slurry, Southland Products, Lake Village, AR) is added to each dish. The mortality is evaluated at 24 and 48 hours. The tests were run in triplicate.

Cotton Aphid = test: Mite/Insect Screen, cotton aphid (CA); assay type: in vivo, Aphis gossypii Glover; settings: Aphis gossypii, 4-5 day
Experimental: as §2, §3

Two-spotted Spider Mite = test: Mite/Insect Screen, two-spotted spider mite (TSSM); assay type: in vivo; settings: Tetranychus urticae, 4-5 day; for inhibition at 50 ppm: 50 ppm (rate in parenthesis)
Experimental: as §2, §3

Tobacco Budworm = test: Mite/Insect Screen, tobacco budworm (TBW); assay type: in vivo; settings: Heliothis virescens, 144 h, 6 day; for inhibition at 50 ppm: 50 ppm (rate in parenthesis)
Experimental: as §2, §3

Aster Leafhopper = test: Mite/Insect Screen, aster leafhopper (ALH); assay type: in vivo; settings: Macrosteles fascifrons, 24 hr
Experimental: as §2, §3

German Cockroach = test: Mite/Insect Screen, German cockroach (GECR); assay type: in vivo; settings: Blattella germanica
Experimental: as §2, §3

Beet Armyworm = test: Mite/Insect Screen, beet armyworm (BAW); assay type: in vivo, Spodoptera exiqua; settings: Spodoptera exigua, 144 h, 6 day
Experimental: as §2, §3

adult stable fly = test: in vitro activity against adult stable fly; assay type: in vivo; settings: Stomoxys calcitrans, 48 hours
Experimental: as §1

Rootknot Nematode = test: Mite/Insect Screen, rootknot nematode (NEM); assay type: in vivo, Meiiiodyne spp.; settings: 264 h, 11 day
Experimental: as §2, §3

[1] = system: catechol O-methyltransferase; settings: cited from earlier work
[2] = system: S-adenosyl-methionine-dependent O-methyltransferase; settings: avermectin-producing strains; cited from earlier work
[3] = system: macrocin O-methyltransferase; settings: cited from earlier work
[4] = system: norepinephrine N-methyltransferase; settings: cited from earlier work
[5] = system: histamine N-methyltransferase; settings: cited from earlier work

| Compound | % mortality (blowfly larvae; 10.0 ppm) [%] | inhibition at 200 ppm (Southern Corn Rootworm) [%] | inhibition at 400 ppm (Southern Corn Rootworm) [%] | LC50 (neonate tobacco budworm) [µg/mL] | inhibition at 200 ppm (Cotton Aphid) [%] | inhibition at 400 ppm (Cotton Aphid) [%] | inhibition at 50 ppm (Two-spotted Spider Mite) [%] | inhibition at 400 ppm (Two-spotted Spider Mite) [%] | inhibition at 50 ppm (Tobacco Budworm) [%] | inhibition at 400 ppm (Tobacco Budworm) [%] | inhibition at 200 ppm (Aster Leafhopper) [%] | inhibition at 400 ppm (Aster Leafhopper) [%] | inhibition at 200 ppm (German Cockroach; 168 h, 7 day) [%] | inhibition at 400 ppm (German Cockroach; 168 h, 7 day) [%] | inhibition at 200 ppm (Beet Armyworm) [%] | inhibition at 400 ppm (Beet Armyworm) [%] | inhibition at 200 ppm (Rootknot Nematode) [%] | inhibition at 400 ppm (Rootknot Nematode) [%] | inhibition at 200 ppm (German Cockroach; 504 h, 21 day) [%] | inhibition at 400 ppm (German Cockroach; 504 h, 21 day) [%] | other results |
| --- | --- | --- | --- | --- | --- | --- | --- | --- | --- | --- | --- | --- | --- | --- | --- | --- | --- | --- | --- | --- | --- |
| COC1C(OC2CC3C=CC4C5CC(=O)OC(C)CCCC(OC6CCC(N(C)C)C(C)O6)C(C)C(=O)C5=CC4C3C2)OC(C)C(O)C1OC (stereo not drawn) [A83543Y] | 100 | 0 | 0 | 20 (≈ 28.4 µM) | 0 | 0 | 0 | 100 | 0 | 100 | 60 | 80 | 0 | 0 | 80 | 100 | – | – | – | – | mortality at 10 ppm (adult stable fly): 90% |
| CCC1CCCC(OC2CCC(N(C)C)C(C)O2)C(C)C(=O)C2=CC3C(C=C(C)C4CC(OC5OC(C)C(O)C(O)C5OC)CC43)C2CC(=O)O1 (stereo not drawn) [A83543W] | 0 | 0 | 0 | > 64 | 0 | 0 | 0 | 80 | 0 | 100 | 0 | 0 | 0 | 0 | 0 | 60 | 0 | 0 | 20 | 0 | mortality at 10 ppm (adult stable fly): 40% |
| CCC1CCCC(OC2CCC(NC)C(C)O2)C(C)C(=O)C2=CC3C(C=CC4CC(OC5OC(C)C(O)C(OC)C5OC)CC43)C2CC(=O)O1 (stereo not drawn) [N-demethyl-K, N-demethyl-A83543K] | – | – | 60 | 9.8 (≈ 13.9 µM) | 0 | 0 | 0 | 100 | 100 | 100 | 100 | 100 | 0 | 0 | 100 | 100 | – | 100 | 20 | 60 | – |
| CCC1CCCC(OC2CCC(N(C)C)C(C)O2)C(C)C(=O)C2=CC3C(C=CC4CC(OC5OC(C)C(O)C(O)C5OC)CC43)C2CC(=O)O1 (stereo not drawn) [A83543P] | 10 | 0 | 0 | > 64 | 0 | 0 | 100 | 100 | 0 | 100 | 0 | 0 | 0 | 0 | 100 | 100 | 0 | 0 | 20 | 0 | mortality at 10 ppm (adult stable fly): 90% |
| CCC1CCCC(OC2CCC(N(C)C)C(C)O2)C(C)C(=O)C2=CC3C(C=C(C)C4CC(OC5OC(C)C(O)C(OC)C5OC)CC43)C2CC(=O)O1 (stereo not drawn) [A83543O] | – | 0 | 0 | 1.4 (≈ 1.91 µM) | 0 | 100 | – | 100 | – | 100 | 100 | 100 | 0 | 0 | 100 | 100 | 0 | 0 | 20 | 100 | inhibition at 200 ppm (Two-spotted Spider Mite): 100%; inhibition at 200 ppm (Tobacco Budworm): 100%; mortality at 5 ppm (adult stable fly; 5 ppm): 100% |
| Nc1ncnc2c1ncn2[C@@H]1O[C@H](C[C@@H](N)CC[C@H](N)C(=O)O)[C@@H](O)[C@H]1O [Sinefungin] | – | – | – | – | – | – | – | – | – | – | – | – | – | – | – | – | – | – | – | – | inhibition of catechol O-methyltransferase [1]: effective in inhibiting; inhibition of O-methyltransferase in S. avermitilis [2]: effective in inhibiting; inhibition of macrocin O-methyltransferase [3]: effective in inhibiting; inhibition of norepinephrine N-methyltransferase [4]: effective in inhibiting; inhibition of histamine N-methyltransferase [5]: effective in inhibiting |
| CCC1CCCC(OC2CCC(N(C)C)C(C)O2)C(C)C(=O)C2=CC3C(C=CC4CC(OC5OC(C)C(O)C(OC)C5OC)CC43)C2CC(=O)O1 (stereo not drawn) [A83543K] | – | 0 | 100 | 3.5 (≈ 4.88 µM) | 0 | 0 | – | 100 | – | 100 | 100 | 100 | 0 | 0 | 100 | 100 | 0 | 0 | 0 | 80 | % mortality (blowfly larvae; 2.5 ppm): 40%; inhibition at 200 ppm (Two-spotted Spider Mite): 90%; inhibition at 200 ppm (Tobacco Budworm): 100%; mortality at 2.5 ppm (adult stable fly; 2.5 ppm): 90% |
| CCC1CCCC(OC2CCC(N(C)C)C(C)O2)C(C)C(=O)C2=CC3C(C=CC4CC(OC5OC(C)C(O)C(OC)C5O)CC43)C2CC(=O)O1 (stereo not drawn) [A83543U] | – | 0 | 0 | 22 (≈ 31.3 µM) | 0 | 0 | – | 0 | 100 | 100 | 100 | 100 | 0 | 0 | 100 | 100 | 0 | 0 | 0 | 0 | inhibition at 200 ppm (Two-spotted Spider Mite): 0% |
